In patent US20250289793A1, “MACROCYCLIC INHIBITORS OF ATP CITRATE LYASE” (Esperion Therapeutics, Inc., priority 2022, published 2025):

How the values were obtained:
[1] = biological target: T1, ACLY (Homo sapiens (Human), UniProt P53396); experiment: InCell Pulse assay (permeate HEK293 cells, bind to and stabilize ACLY); type: cell-based; settings: HEK293 cells transfected with pICP-ACLY(FL)-ePL; 1 hour at 37° C., 55° C. heat pulse 10 minutes; read-out: InCell Pulse IC50 GMean
Method: HEK293 cells transfected for 24 hours with pICP-ACLY(FL)-ePL (3 μg DNA per T25 flask) using FuGene HD (Promega Corp.) were harvested and cryopreserved. On the day of the assay, the frozen transfected cells were thawed at 37° C., and the storage medium (DMEM with 2 mM L-Glutamine, 10% FBS and a final concentration of DMSO 10%) was exchanged with assay medium (OptiMEM; Gibco™, ThermoFischer Scientific). Compounds were 3-fold serially diluted in DMSO over 11-point concentration range. 100 nL of the corresponding dilutions were spotted into the assay plate (Greiner AG; 384 Well, PP, Small Volume, Deep Well, Natural, cat. no. 784201) followed by the addition of 20 μL of cell suspension adjusted with assay medium to 7.5E4 cells/mL. Subsequently, the plates were sealed and incubated for 1 hour at 37° C. Afterwards, the plates were fixed upside down in a rack and incubated in a 55° C. water bath for 10 minutes. Following this heat pulse step, plates were allowed to reach room temperature for 10 minutes and centrifuged for a few seconds at 1000 rpm and room temperature. 25 μL EA detection solution (working solution: 0.0167× InCell EA Reagent, 0.15× InCell Dilution Buffer, 0.167× InCell Lysis Buffer; 0.667× InCell Substrate Reagent; InCell Hunter Detection kit; Eurofins DiscoverX; cat. no. 96-0079) were added to each well. Afterwards, 42 μL were transferred from the assay plate to the detection plate (Corning Inc., 384-well Low Flange Black Flat Bottom Polystyrene NBS Microplate, cat. no. 3575), followed by an incubation for 1 hour at room temperature, a centrifugation step for 1 minute at 1000 rpm and the detection of the luminescence signal using an EnVision microplate reader (Perkin Elmer Inc.). Concentration-response curve-fitting and IC50 determination was performed using Evotec's in-house evaluation software APlus with a four-parameter non-linear regression fit model. Data was normalized to 0.5% (final concentration) DMSO as low/negative control and 1 μM (final concentration) NDI-094311 as high/positive control.

[2] = biological target: T1, ACLY; experiment: Human ACLY (hACLY) RF/MS activity assay; type: biochemical; settings: 1 nM hACLY; 30 min pre-incubation; 15 μM Coenzyme A, 50 μM ATP, 50 μM citrate; CoA to Acetyl-CoA by RF/MS; read-out: RFMS IC50 GMean
Method: Compounds of the disclosure were evaluated for their efficacy in inhibiting hACLY using rapid fire mass spectrometry (RF/MS).
The final reaction volume for each compound was 20 μl and consisted of buffer (50 mM Hepes pH 8.0, 10 mM MgCl2, 0.003% BSA, 0.01% Brij35, 50 mM NaCl, 4 mM DTT) and 1 nM hACLY, EV12992, PP6692) using Greiner, 384 well small volume, deep well plates (Cat #784201). A two-fold dilution series with a top concentration of 10 μM was used to record a concentration response curve. Both the substrate (CoA) and product (Acetyl-CoA) were quantified, and given a ratio. […] The final DMSO-concentration was 1% (v/v). Compounds were pre-incubated for 30 min with the buffered enzyme solution at RT (20° C.), and substrate solution was added (final concentrations: 15 μM Coenzyme A, 50 μM ATP and 50 μM citrate) to initiate the enzyme reaction. The enzyme reaction was incubated for additional 30 min at RT. The reaction was quenched upon addition of 40 μl of 5% Formic acid in H2O and centrifuged (4350 rpm at 20° C. for 10 min).
Product formation was quantified using a RF/MS-based method based on mass change of CoA (substrate) to Acetyl-CoA (product).

T1 sequence (P53396 whole entry): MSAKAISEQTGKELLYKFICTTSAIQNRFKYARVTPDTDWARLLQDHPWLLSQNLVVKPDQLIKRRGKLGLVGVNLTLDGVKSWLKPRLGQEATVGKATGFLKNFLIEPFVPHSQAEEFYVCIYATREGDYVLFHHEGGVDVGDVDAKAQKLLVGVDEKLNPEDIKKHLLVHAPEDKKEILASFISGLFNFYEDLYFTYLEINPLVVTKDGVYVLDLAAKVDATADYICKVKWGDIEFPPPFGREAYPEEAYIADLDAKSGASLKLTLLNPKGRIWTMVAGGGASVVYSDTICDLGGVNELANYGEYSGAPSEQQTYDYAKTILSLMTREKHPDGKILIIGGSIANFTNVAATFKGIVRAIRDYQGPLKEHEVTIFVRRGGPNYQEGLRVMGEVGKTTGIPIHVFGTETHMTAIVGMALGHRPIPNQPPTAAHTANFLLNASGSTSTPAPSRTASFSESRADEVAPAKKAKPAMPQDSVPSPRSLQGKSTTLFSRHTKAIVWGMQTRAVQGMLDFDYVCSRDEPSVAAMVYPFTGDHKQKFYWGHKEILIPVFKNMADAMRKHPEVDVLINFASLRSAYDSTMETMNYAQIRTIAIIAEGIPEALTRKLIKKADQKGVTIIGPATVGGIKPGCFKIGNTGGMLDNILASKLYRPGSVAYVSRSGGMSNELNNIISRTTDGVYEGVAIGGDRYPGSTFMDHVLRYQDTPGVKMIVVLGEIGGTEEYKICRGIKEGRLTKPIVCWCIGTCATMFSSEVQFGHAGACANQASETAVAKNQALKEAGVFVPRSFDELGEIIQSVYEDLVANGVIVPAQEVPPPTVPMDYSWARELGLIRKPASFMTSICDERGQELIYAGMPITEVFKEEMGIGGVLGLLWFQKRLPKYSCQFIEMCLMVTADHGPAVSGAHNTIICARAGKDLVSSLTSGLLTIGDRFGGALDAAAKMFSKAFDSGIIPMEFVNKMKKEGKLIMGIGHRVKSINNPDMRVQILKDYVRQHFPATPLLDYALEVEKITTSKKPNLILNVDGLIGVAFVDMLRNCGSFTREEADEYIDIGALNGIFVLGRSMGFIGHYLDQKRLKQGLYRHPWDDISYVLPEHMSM

Row | Compound | IC50 [1] | IC50 [2]
1 | O=C1OCCCc2ccccc2-c2ccc(F)c(c2)NS(=O)(=O)c2cc1cc(Cl)c2O [Compound 42, 15-chloro-21-fluoro-16-hydroxy-18,18-dioxo-11-oxa-18λ6-thia-19-azatetracyclo[18.3.1.113,17.02,7]pentacosa-1(23),2(7),3,5,13,15,17(25),20(24),21-nonaen-12-one] | < 300 nM | 20 to 100 nM
2 | CC1CCOC(=O)c2cc(Cl)c(O)c(c2)S(=O)(=O)Nc2cc(c(F)cc2F)-c2ccccc21 (stereo not drawn) [Compound 43, 15-chloro-21,23-difluoro-16-hydroxy-8-methyl-18,18-dioxo-11-oxa-18λ6-thia-19-azatetracyclo[18.3.1.113,17.02,7]pentacosa-1(23),2(7),3,5,13,15,17(25),20(24),21-nonaen-12-one] | 300 to 1000 nM | 20 to 100 nM
3 | O=C1OCCOc2ccc(F)cc2-c2ccc(F)c(c2)NS(=O)(=O)c2cc1cc(Cl)c2O [Compound 46, 15-chloro-4,21-difluoro-16-hydroxy-18,18-dioxo-8,11-dioxa-18λ6-thia-19-azatetracyclo[18.3.1.113,17.02,7]pentacosa-1(23),2(7),3,5,13,15,17(25),20(24),21-nonaen-12-one] | < 300 nM | < 20 nM
4 | COc1cc(F)c2cc1-c1ccccc1OCCOC(=O)c1cc(Cl)c(O)c(c1)S(=O)(=O)N2 [Compound 47, 15-chloro-21-fluoro-16-hydroxy-23-methoxy-18,18-dioxo-8,11-dioxa-18λ6-thia-19-azatetracyclo[18.3.1.113,17.02,7]pentacosa-1(23),2(7),3,5,13(25),14,16,20(24),21-nonaen-12-one] | < 300 nM | 20 to 100 nM
5 | O=C1OCCOc2cc(F)ccc2-c2ccc(F)c(c2)NS(=O)(=O)c2cc1cc(Cl)c2O [Compound 48, 15-chloro-5,21-difluoro-16-hydroxy-18,18-dioxo-8,11-dioxa-18λ6-thia-19-azatetracyclo[18.3.1.113,17.02,7]pentacosa-1(23),2(7),3,5,13(25),14,16,20(24),21-nonaen-12-one] | < 300 nM | < 20 nM
6 | Cc1cccc2c1-c1cc(c(F)cc1F)NS(=O)(=O)c1cc(cc(Cl)c1O)C(=O)OCCO2 [Compound 49, 15-chloro-21,23-difluoro-16-hydroxy-3-methyl-18,18-dioxo-8,11-dioxa-18λ6-thia-19-azatetracyclo[18.3.1.113,17.02,7]pentacosa-1(23),2(7),3,5,13(25),14,16,20(24),21-nonaen-12-one] | ≥ 50000 nM | ≥ 10000 nM
7 | Cc1cc(F)c2cc1-c1ccccc1OCCOC(=O)c1cc(Cl)c(O)c(c1)S(=O)(=O)N2 [Compound 50, 15-chloro-21-fluoro-16-hydroxy-23-methyl-18,18-dioxo-8,11-dioxa-18λ6-thia-19-azatetracyclo[18.3.1.113,17.02,7]pentacosa-1(23),2(7),3,5,13(25),14,16,20(24),21-nonaen-12-one] | < 300 nM | < 20 nM
8 | O=C1OCCOc2ccccc2-c2ccc(F)c(c2F)NS(=O)(=O)c2cc1cc(Cl)c2O [Compound 51, 15-chloro-21,24-difluoro-16-hydroxy-18,18-dioxo-8,11-dioxa-18λ6-thia-19-azatetracyclo[18.3.1.113,17.02,7]pentacosa-1(23),2(7),3,5,13(25),14,16,20(24),21-nonaen-12-one] | ≥ 50000 nM | 100 to 10000 nM
9 | O=C1OCCOc2ccc(Cl)cc2-c2ccc(F)c(c2)NS(=O)(=O)c2cc1cc(Cl)c2O [Compound 52, 4,15-dichloro-21-fluoro-16-hydroxy-18,18-dioxo-8,11-dioxa-18λ6-thia-19-azatetracyclo[18.3.1.113,17.02,7]pentacosa-1(23),2(7),3,5,13,15,17(25),20(24),21-nonaen-12-one] | 300 to 1000 nM | 20 to 100 nM
10 | O=C1OCCOc2cc3cn[nH]c3cc2-c2cc(c(F)cc2F)NS(=O)(=O)c2cc1cc(Cl)c2O [Compound 53, 18-chloro-24,26-difluoro-19-hydroxy-21,21-dioxo-11,14-dioxa-21λ6-thia-5,6,22-triazapentacyclo[21.3.1.116,20.02,10.04,8]octacosa-1(27),2(10),3,6,8,16(28),17,19,23,25-decaen-15-one] | ≥ 50000 nM | 100 to 10000 nM
11 | O=C1OCCOc2ccccc2-c2cc(F)c(F)c(c2)NS(=O)(=O)c2cc1cc(Cl)c2O [Compound 54, 15-chloro-21,22-difluoro-16-hydroxy-18,18-dioxo-8,11-dioxa-18λ6-thia-19-azatetracyclo[18.3.1.113,17.02,7]pentacosa-1(23),2(7),3,5,13(25),14,16,20(24),21-nonaen-12-one] | < 300 nM | < 20 nM
12 | O=C1OCCOc2ccccc2-c2ccc(OC(F)F)c(c2)NS(=O)(=O)c2cc1cc(Cl)c2O [Compound 55, 15-chloro-21-(difluoromethoxy)-16-hydroxy-18,18-dioxo-8,11-dioxa-18λ6-thia-19-azatetracyclo[18.3.1.113,17.02,7]pentacosa-1(23),2(7),3,5,13(25),14,16,20(24),21-nonaen-12-one] | 300 to 1000 nM | < 20 nM
13 | O=C1OCCOc2ccccc2-c2ccc(C3CC3)c(c2)NS(=O)(=O)c2cc1cc(Cl)c2O [Compound 57, 15-chloro-21-cyclopropyl-16-hydroxy-18,18-dioxo-8,11-dioxa-18λ6-thia-19-azatetracyclo[18.3.1.113,17.02,7]pentacosa-1(23),2(7),3,5,13(25),14,16,20(24),21-nonaen-12-one] | 1000 to 50000 nM | 20 to 100 nM
14 | O=C1OCCOc2ccccc2-c2ccc(C(F)(F)F)c(c2)NS(=O)(=O)c2cc1cc(Cl)c2O [Compound 58, 15-chloro-16-hydroxy-18,18-dioxo-21-(trifluoromethyl)-8,11-dioxa-18λ6-thia-19-azatetracyclo[18.3.1.113,17.02,7]pentacosa-1(24),2(7),3,5,13(25),14,16,20,22-nonaen-12-one] | < 300 nM | 20 to 100 nM
15 | O=C1OCCOc2ccccc2-c2cc(c(F)cc2F)NS(=O)(=O)c2cc1ccc2C(F)F [Compound 60, 16-(difluoromethyl)-21,23-difluoro-18,18-dioxo-8,11-dioxa-18λ6-thia-19-azatetracyclo[18.3.1.113,17.02,7]pentacosa-1(23),2(7),3,5,13(25),14,16,20(24),21-nonaen-12-one] | ≥ 50000 nM | ≥ 10000 nM
16 | O=C1OCCOc2ccccc2-c2cc(c(F)cc2F)NS(=O)(=O)c2cc1cc(Cl)n2 [Compound 61, 15-chloro-21,23-difluoro-18,18-dioxo-8,11-dioxa-18λ6-thia-16,19-diazatetracyclo[18.3.1.113,17.02,7]pentacosa-1(24),2,4,6,13,15,17(25),20,22-nonaen-12-one] | ≥ 50000 nM | ≥ 10000 nM
17 | Cc1cc2cc(n1)S(=O)(=O)Nc1cc(c(F)cc1F)-c1ccccc1OCCOC2=O [Compound 62, 21,23-difluoro-15-methyl-18,18-dioxo-8,11-dioxa-18λ6-thia-16,19-diazatetracyclo[18.3.1.113,17.02,7]pentacosa-1(24),2,4,6,13,15,17(25),20,22-nonaen-12-one] | ≥ 50000 nM | ≥ 10000 nM
18 | Nc1cc2cc(n1)S(=O)(=O)Nc1cc(c(F)cc1F)-c1ccccc1OCCOC2=O [Compound 63, 15-amino-21,23-difluoro-18,18-dioxo-8,11-dioxa-18λ6-thia-16,19-diazatetracyclo[18.3.1.113,17.02,7]pentacosa-1(23),2(7),3,5,13,15,17(25),20(24),21-nonaen-12-one] | ≥ 50000 nM | ≥ 10000 nM
